The values below come from patent US4910302A, “Psychotropic polycyclic imides” (American Home Products Corporation, priority 1988, dated 1990).

One assay deals with 5-HT1A receptor. Particulars: cited from earlier work.
A further assay deals with T1, dopamine D-2 receptor (Rattus norvegicus, UniProt P61169).
T1 construct: from tissue; host or cells: homogenized limbic brain tissue
The experiment in a line: dopamine D-2 receptor binding, displacement of 3H-spiroperidol, homogenized limbic brain tissue. The procedure:
High affinity for the dopamine D-2 receptor was established by the standard experimental test procedure of Fields et al., Brain Res., 136 578 (1977) and Yamamura et al., eds., Neurotransmitter Receptor Binding, Raven Press, N.Y. (1978) wherein homogenized limbic brain tissue is incubated with ^3 H-spiroperidol and various concentrations of test compound, filtered and washed and shaken with Hydrofluor scintillation cocktail (National Diagnostics) and counted in a Packard 460 CD scintillation counter.

In assay [1] the target is T2, serotonin 5-HT1A receptor (Rattus norvegicus, UniProt P19327).
T2 sequence (P19327 1-422): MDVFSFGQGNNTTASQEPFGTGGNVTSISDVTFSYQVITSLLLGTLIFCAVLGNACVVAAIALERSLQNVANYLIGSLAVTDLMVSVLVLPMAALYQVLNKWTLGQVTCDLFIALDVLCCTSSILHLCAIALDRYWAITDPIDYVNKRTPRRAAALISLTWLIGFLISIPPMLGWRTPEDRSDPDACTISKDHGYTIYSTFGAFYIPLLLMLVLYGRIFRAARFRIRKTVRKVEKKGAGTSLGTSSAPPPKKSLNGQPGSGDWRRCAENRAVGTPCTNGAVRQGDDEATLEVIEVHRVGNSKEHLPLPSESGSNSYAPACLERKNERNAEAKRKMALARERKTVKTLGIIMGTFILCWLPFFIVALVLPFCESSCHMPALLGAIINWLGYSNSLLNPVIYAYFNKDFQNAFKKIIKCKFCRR
The experiment in a line: serotonin 5-HT1A receptor binding, displacement of [3H] 8-OHDPAT. Also noted: following the procedure of Hall et al., J. Neurochem; 44 1685 (1985); from tissue. Particulars: for inhibition at 0.1 µM: as marked beside the value. From the text: High affinity for the serotonin 5-HT1A receptor was established by testing the claimed compounds ability to displace [^3 H] 8-OHDPAT (dipropylaminotetralin) from the 5HT1A serotonin receptor following the procedure of Hall et al., J. Neurochem. 44 1685 (1985). […] The anxiolytic activity of buspirone is believed to be, at least partially, due to its 5-HT1A receptor affinity (Vander Maclen et al., Eur. J. Pharmacol. 1986, 129 (1-2) […].

Assay [2] addresses T2, serotonin 5-HT1A receptor. Particulars: in words; standard for anxiolytic activity; cited from earlier work.

SMILES strings stand for the structures.

T1 sequence (P61169 whole entry): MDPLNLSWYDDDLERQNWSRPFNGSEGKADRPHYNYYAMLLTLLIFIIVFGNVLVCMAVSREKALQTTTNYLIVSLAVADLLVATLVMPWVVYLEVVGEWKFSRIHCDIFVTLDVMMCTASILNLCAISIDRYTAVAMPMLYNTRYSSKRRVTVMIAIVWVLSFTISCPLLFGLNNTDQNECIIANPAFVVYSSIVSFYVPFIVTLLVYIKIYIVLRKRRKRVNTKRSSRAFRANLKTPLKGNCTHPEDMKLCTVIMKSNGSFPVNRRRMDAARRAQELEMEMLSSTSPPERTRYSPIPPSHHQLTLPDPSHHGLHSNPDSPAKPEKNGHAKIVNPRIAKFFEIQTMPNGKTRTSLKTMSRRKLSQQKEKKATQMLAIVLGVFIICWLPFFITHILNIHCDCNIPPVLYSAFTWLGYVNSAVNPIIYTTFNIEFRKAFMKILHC

Turning to `O=C1CC2(CCCC2)CC(=O)N1CCCCNCC1COc2ccccc2O1` (single isomer, unassigned) [-(MDL) 72832], in the assay on 5-HT1A receptor (ratio to dextro rotatory isomer), the “binding at the 5-HT1A receptor site relative to the dextro rotatory isomer” value was 32 times. Consider `O=C1C2CC(C(=O)N1CCCCNCC1COc3ccccc3O1)C1C2C2C3CC4C2C4C31` (stereo not shown) [Example 1, Decahydro-3-[4-[(2,3-dihydro-1,4-benzodioxan-2-ylmethyl)amino]butyl]-1,5-methano-6,7,9-metheno-2H-pentaleno[1,2-d]azepine-2,4(3H)-dione], for which the inhibition at 1 µM on dopamine D-2 receptor is 100%; in assay [1] (at 1 μM) it was 96%. As for `O=C1C2C(C(=O)N1CCCCNCC1COc3ccccc3O1)C1C3CC4C(C32)C41` (stereo not drawn) [Example 2, Endo-2-[4-[(2,3-dihydro-1,4-benzodioxan-2-ylmethyl)amino]butyl]octahydro-4,5,7-metheno-1H-pentaleno[1,2-c]pyrrole-1,3(2H)-dione], the inhibition at 1 µM was 100% at dopamine D-2 receptor and 96% in assay [1] (at 1 μM).

As for `O=C1C2C(C(=O)N1CCCCNCC1COc3ccccc3O1)C1C3CC4C(C32)C41` (stereo not drawn) [Example 3, Exo-2-[4-[(2,3-dihydro-1,4-benzodioxan-2-ylmethyl)amino]butyl]octahydro-4,5,7-metheno-1H-pentaleno[1,2c]pyrrole-1,3(2H)-dione], the “D-2 Binding (% Inhibition at 1 μM)” value at dopamine D-2 receptor (at 1 μM) is 100%. Besides, the “5-HT1A Binding (% Inhibition at 1 μM)” value in assay [1] (at 1 μM) stood at 94%. Take `O=C1C2C3C=CC(C4C=CC43)C2C(=O)N1CCCCNCC1COc2ccccc2O1` (stereo not shown) [Example 4, 2-[4-[(2,3-Dihydro-1,4-benzodioxan-2-ylmethyl)amino]butyl]hexahydro-4,7-etheno-1H-cyclobut[f]isoindole-1,3-(2H)-dione]: the inhibition at 1 µM (on dopamine D-2 receptor; in assay [1] (at 1 μM)) was 100% in each case. In the case of `O=C1C2C3C=CC(C4CC34)C2C(=O)N1CCCCNCC1COc2ccccc2O1` (stereo not shown) [Example 5], the inhibition at 1 µM (at dopamine D-2 receptor; in assay [1] (at 1 μM)) was 100% in each case.

At dopamine D-2 receptor, `CC1(C)[C@@H]2CC[C@@]1(C)C(=O)N(CCNCC1COc3ccccc3O1)C2=O` (stereo partly shown) [Example 6] had an inhibition at 1 µM of 61%. In addition, the inhibition at 0.1 µM in assay [1] turned out to be 52%. In turn, `O=C1C2C3C=CC(C4C=CC43)C2C(=O)N1CCNCC1COc2ccccc2O1` (stereo not shown) [Example 7, 2-[2-[(2,3-Dihydro-1,4-benzodioxan-2-ylmethyl)amino]ethyl]hexahydro-4,7-etheno-1H-cyclobut[f]isoindole-1,3-(2H)-dione] gave an inhibition at 1 µM on dopamine D-2 receptor of 54%. The compound also gave an inhibition at 0.1 µM in assay [1] of 92%.

In the case of `O=C1C2CC(C(=O)N1CCNCC1COc3ccccc3O1)C1C2C2C3CC4C2C4C31` (stereo not shown) [Example 8, Decahydro-3-[2-[(2,3-dihydro-1,4-benzodioxan-2-ylmethyl)amino]ethyl]-1,5-methano-6,7,9-metheno-2H-pentaleno[1,2d]azepine-2,4(3H)-dione], the inhibition at 1 µM on dopamine D-2 receptor came out at 89%. This compound yielded an inhibition at 0.1 µM in assay [1] of 100%.

Turning to `O=C1CC2(CCCC2)CC(=O)N1CCCCNCC1COc2ccccc2O1` (stereo not shown) [MDL 72832, 8-[4-(1,4-benzodioxan-2-ylmethylamino)butyl]-8-azaspiro[4.5]decane-7,9-dione], in the assay on 5-HT1A receptor (in words), the “5-HT1A receptor ligand character” value is “selective and stereospecific”. As to `O=C1CC2(CCCC2)CC(=O)N1CCCCN1CCN(c2ncccn2)CC1` [buspirone], in assay [2], the “affinity for the 5-HT1A serotonin receptor subtype” value is “potent affinity”.
